Reference: patent US20190369111A1, “MOLECULAR KINETICS EVALUATION METHOD AND SCREENING METHOD” (Tokyo University of Science Foundation, priority 2016, published 2019)

Target: endogenous wild-type p53 protein (Homo sapiens, UniProt P04637)
Assay: Degradation of endogenous wild-type p53 protein in HeLa cells, Western blot analysis
Assay type: cell-based
Parameters: endogenous in cells
Method: HeLa cells were seeded in a 24-well plate at a cell density of 4×10^4 cells/well, and then cultured under conditions of 37° C. and 5 vol % CO2 for 16 hours.
After 16 hours from cell seeding, TIBC-CANDDY_MLN was added to HeLa cells as follows. […]
After electrophoresis, proteins were transferred to a PVDF membrane (Immobion™-P, Millipore) under conditions of 100 V and 2 hours using a tank-type blotting device and a transfer buffer (25 mM Tris-HCl, 195 mM glycine, 0.01% SDS, 15% methanol). […] Subsequently, the membrane was treated with a chemiluminescence reagent Immobilon™ Western (Millipore), and then chemiluminescence was detected using a lumino image analyzer LAS-3000 (FUJIFILM Corporation).

Chain of endogenous wild-type p53 protein (P04637 whole entry): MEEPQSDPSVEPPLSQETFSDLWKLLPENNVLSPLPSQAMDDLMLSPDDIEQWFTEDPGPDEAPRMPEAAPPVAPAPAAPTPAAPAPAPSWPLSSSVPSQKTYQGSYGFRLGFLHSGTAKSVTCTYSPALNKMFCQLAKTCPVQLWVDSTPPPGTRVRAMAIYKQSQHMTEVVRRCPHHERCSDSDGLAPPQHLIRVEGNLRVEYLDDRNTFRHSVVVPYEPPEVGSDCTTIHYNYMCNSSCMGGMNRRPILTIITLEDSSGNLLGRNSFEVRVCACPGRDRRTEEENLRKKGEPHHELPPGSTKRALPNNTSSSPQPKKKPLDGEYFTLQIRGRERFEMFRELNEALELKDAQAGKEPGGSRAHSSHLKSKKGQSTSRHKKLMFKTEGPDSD

CC(C)C[C@H](NC(=O)CNC(=O)c1cc(Cl)ccc1Cl)C(=O)NCCCCCCC(=O)Nc1ccc(C(=O)/C=C/c2ccc(I)cc2)cc1 [TIBC-CANDDY_MLN]
amount of endogenous wild-type p53 protein (24 hours after addition): the amount of the endogenous wild-type p53 protein was reduced | amount of wild-type p53 protein when MLN2238 is added together (both TIBC-CANDDY_MLN and MLN2238 added): the amount of the wild-type p53 protein was increased as compared with the control (DMSO)
